Entries after “also recorded” stand apart in the source; their conditions may differ. Like-named read-outs stand apart in the source and are kept apart here.
Assays:
SW480 cells = assay: Cytotoxicity assay (cell survival rate, MTT); assay type: cell-based; settings: substrate alone, 2DG for 72 hours
Experimental: (§1) HepG2 cells, SKOV3 cells, HCT116 cells and CaCo2 cells were cultured in DMEM medium, SW480 cells in 1640 medium, and HT29 cells in McCoy’s 5A medium. […] In cytotoxicity assays, cells were seeded at 1 × 10^5 cells/well in 96 well plates with full medium. In GSH assay and Western blot analysis, cells were seeded at 3× 10^6 cells/well in 6 well plates. The AKR1Bs substrates’ cytotoxicity was assessed by cell survival rate using MTT assay. After the cells were treated with the substrates for the length of time indicated, MTT was added to a final concentration of 0.5 mg/ml in each well of a 96-well plate, and the plates were incubated at 37° C. for 4 hour. Then DMSO was added to dissolve the formazan product, the amount of which is proportional to the number of live cells. The absorbance of dissolved dye was measured at 540 nm using an automatic microplate reader.

HT29 cells = assay: Cytotoxicity assay (cell survival rate, MTT); assay type: cell-based; settings: substrate alone, 2DG for 72 hours
Experimental: as §1

[1] = for Death Rate: both, ICR, 14 days
Experimental: ICR mice (18-22 g) were acquired from the Laboratory Animal Services Centre, The Chinese University of Hong Kong. These animals were housed in an animal room with 12 h of day and dark cycles, and the temperature maintained at around 25° C. There were 4 male and 4 female in each treatment and control group. They were treated with either diacetyl or glyceraldehyde. Diacetyl and glyceraldehyde were dissolved with saline and administered to the mice by intravenous injection with the amount indicated. […] Mortality was recorded daily for the calculation of […] (LD50). All surviving animals were euthanized with diethyl-ether at the end of the experiment.

AKR1B10 [2] = molecular target: T1, AKR1B10 (Homo sapiens, UniProt O60218); settings: ND = no detectable activity or less than 32 nmol/min/mg; cited from earlier work
T1 sequence (O60218 whole entry): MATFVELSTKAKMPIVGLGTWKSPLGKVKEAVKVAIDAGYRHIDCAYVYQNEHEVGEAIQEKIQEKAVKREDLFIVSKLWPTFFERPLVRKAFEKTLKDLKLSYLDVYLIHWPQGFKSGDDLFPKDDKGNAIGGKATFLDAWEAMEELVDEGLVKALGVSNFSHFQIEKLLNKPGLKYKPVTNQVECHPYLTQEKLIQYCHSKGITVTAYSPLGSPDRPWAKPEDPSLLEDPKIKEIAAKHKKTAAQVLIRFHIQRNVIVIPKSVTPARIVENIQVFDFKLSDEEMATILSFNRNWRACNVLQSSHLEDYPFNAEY

HCT116 cells [3] = assay: Cytotoxicity assay (cell survival rate, MTT); assay type: cell-based; settings: for Cytotoxicity of AKR1Bs substrate (cell survival rate): substrate alone, 2DG for 72 hours; for Protection against 2DG toxicity by AKR1Bs inhibitor (survival rate): inhibitor 24 h, then 2DG (20 mM) for additional 48 h
Experimental: (§2) HepG2 cells, SKOV3 cells, HCT116 cells and CaCo2 cells were cultured in DMEM medium, SW480 cells in 1640 medium, and HT29 cells in McCoy’s 5A medium. All cell culture media were supplemented with 10% FBS, 1% PSN, and cells were cultured in a humidified incubator containing 5% CO2 at 37° C. In cytotoxicity assays, cells were seeded at 1 × 10^5 cells/well in 96 well plates with full medium. In GSH assay and Western blot analysis, cells were seeded at 3× 10^6 cells/well in 6 well plates.
(§3) The AKR1Bs substrates’ cytotoxicity was assessed by cell survival rate using MTT assay. After the cells were treated with the substrates for the length of time indicated, MTT was added to a final concentration of 0.5 mg/ml in each well of a 96-well plate, and the plates were incubated at 37° C. for 4 hour. Then DMSO was added to dissolve the formazan product, the amount of which is proportional to the number of live cells. The absorbance of dissolved dye was measured at 540 nm using an automatic microplate reader.

CaCo2 cells [4] = assay: Cytotoxicity assay (cell survival rate, MTT); assay type: cell-based; settings: for Cytotoxicity of AKR1Bs substrate (cell survival rate): substrate alone, 2DG for 72 hours; for Protection against 2DG toxicity by AKR1Bs inhibitor (survival rate): inhibitor 24 h, then 2DG (20 mM) for additional 48 h
Experimental: as §2, §3

SKOV3 cells [5] = assay: Cytotoxicity assay (cell survival rate, MTT); assay type: cell-based; settings: for Cytotoxicity of AKR1Bs substrate (cell survival rate): substrate alone, 2DG for 72 hours; for Protection against 2DG toxicity by AKR1Bs inhibitor (survival rate): inhibitor 24 h, then 2DG (20 mM) for additional 48 h
Experimental: as §2, §3

HepG2 cells [6] = assay: Cytotoxicity assay (cell survival rate, MTT); assay type: cell-based; settings: for Cytotoxicity of AKR1Bs substrate (cell survival rate): substrate alone, 2DG for 72 hours; for Protection against 2DG toxicity by AKR1Bs inhibitor (survival rate): inhibitor 24 h, then 2DG (20 mM) for additional 48 h
Experimental: as §2, §3

AKR1B1 [7] = molecular target: T2, AKR1B1 (Homo sapiens, UniProt P15121); assay: Enzyme activity assay (NADPH oxidation), purified AKR1B1; assay type: biochemical; settings: 20 mM substrate, pH 6.2, 30° C.
Experimental: (§4) Assay of AKR1B1 and AKR1B10 enzymes activities were conducted in 1 ml of the reaction mixture containing 135 mM sodium phosphate buffer (pH 6.2 for AKR1B1 or pH 7.0 for AKR1B10), 0.2 mM NADPH, 0.3 M ammonium sulfate, 2 µg purified protein and 20 mM of their substrate as indicated. The reaction mix was incubated at 30° C. for 30 minutes (min). Protein-free blank controls were included. The decrease of NADPH was monitored by spectrophotometer at 340 nm. Enzyme activity was calculated as the amount of NADPH oxidized/min/mg of protein (Shen Y et al., Chem Biol Interact. 2011, 191(1-3): 192-198).

HepG2 tumor xenograft = settings: 500 mg/kg, tail vein, daily for 21 days
Experimental: Six-week-old male BALB/C nude mice were purchased from the Laboratory Animal Unit of the University of Hong Kong. Mice were allowed to acclimate to laboratory conditions for 1 week before cancer cells injection. […] Treatment was initiated when the tumor grew to about 200±100 mm3. […] Mice were randomized and allocated to different groups. They received daily tail vein injection for 3 weeks of one of the following: glyceraldehyde (500 mg/kg body weight); diacetyl (80 mg/kg body weight); or normal saline. Mice were weighted and the sizes of the tumors were measured with calipers every 3 days. Tumor volumes were calculated with the formula: length×width2/2. Animals were humanely killed at the end of the experiment and their tumors were weighed.

AKR1B10 [8] = molecular target: T1, AKR1B10; assay: Enzyme activity assay (NADPH oxidation), purified AKR1B10; assay type: biochemical; settings: 20 mM substrate, pH 7.0, 30° C.
Experimental: as §4

AKR1B1 [9] = molecular target: T2, AKR1B1; settings: ND = no detectable activity or less than 32 nmol/min/mg; cited from earlier work
HCT116 cells [10] = assay: GSH assay of cell lysates; assay type: cell-based; settings: for Restoration of GSH level in 2DG treated cells by AKR1Bs inhibitor: inhibitor (40 µM) 24 h, then 2DG (20 mM) 48 h
Experimental: as §2
(§5) The cells were washed in cold PBS and then scraped into 300 µL of PBS. The cells were disrupted by ultrasonicator on ice followed by centrifuged at 3500 rpm at 4° C. The supernatant was transferred to a fresh tube and used for GSH assay using GSH assay kit. The concentrations of GSH in cell lysates were determined using the standard GSH calibration curve. The GSH detection for each sample was performed at least three times.

CaCo2 cells [11] = assay: GSH assay of cell lysates; assay type: cell-based; settings: for Restoration of GSH level in 2DG treated cells by AKR1Bs inhibitor: inhibitor (40 µM) 24 h, then 2DG (20 mM) 48 h
Experimental: as §2, §5

SKOV3 cells [12] = assay: GSH assay of cell lysates; assay type: cell-based
Experimental: as §2, §5

HepG2 cells [13] = assay: GSH assay of cell lysates; assay type: cell-based
Experimental: as §2, §5

glycolysis = settings: background statement; cited from earlier work
[14] = inhibitor (40 µM) 24 h, then 2DG (20 mM) 48 h

Row | SMILES | Cytotoxicity of AKR1Bs substrate (cell survival rate) (SW480 cells) | Cytotoxicity of AKR1Bs substrate (cell survival rate) (HT29 cells) | AKR1B10 activity, amount of NADPH (nmol) oxidized per min per mg of protein (AKR1B10 [2]) [nmol/min/mg] | Cytotoxicity of AKR1Bs substrate (cell survival rate) (HCT116 cells [3]) | Cytotoxicity of AKR1Bs substrate (cell survival rate) (CaCo2 cells [4]) | Cytotoxicity of AKR1Bs substrate (cell survival rate) (SKOV3 cells [5]) | Cytotoxicity of AKR1Bs substrate (cell survival rate) (HepG2 cells [6]) | Efficiency as substrate of AKR1B1 (rate of NADPH depletion) (AKR1B1 [7]) | Efficiency as substrate of AKR1B10 (rate of NADPH depletion) (AKR1B10 [8]) | AKR1B1 activity, amount of NADPH (nmol) oxidized per min per mg of protein (AKR1B1 [9]) [nmol/min/mg] | Restoration of GSH level in 2DG treated cells by AKR1Bs inhibitor (HCT116 cells [10]) | Restoration of GSH level in 2DG treated cells by AKR1Bs inhibitor (CaCo2 cells [11]) | Protection against 2DG toxicity by AKR1Bs inhibitor (survival rate) (HCT116 cells [3]) | Protection against 2DG toxicity by AKR1Bs inhibitor (survival rate) (CaCo2 cells [4]) | Protection against 2DG toxicity by AKR1Bs inhibitor (survival rate) (SKOV3 cells [5]) | Protection against 2DG toxicity by AKR1Bs inhibitor (survival rate) (HepG2 cells [6]) | further results
1 | O=CC(O)CO (racemic) [Glyceraldehyde, glyceraldehyde] | more resistant | more resistant | 1853 | dose dependently and preferentially kill | dose dependently and preferentially kill | dose-dependently and preferentially kill; also recorded: dose dependently and preferentially kill; also recorded: most efficient | dose-dependently and preferentially kill; also recorded: dose dependently and preferentially kill; also recorded: most efficient | excellent substrate | excellent substrate | 1681 |  |  |  |  |  |  | LD50 ([1]; ICR mice, intravenous injection daily for 14 days): greater than 2000 mg/kg BW; Death Rate ([1]; mouse, in vivo, iv, 1000 mg/kg): 0%; Death Rate ([1]; mouse, in vivo, iv, 2000 mg/kg): 0%; LD50 ([1]; mouse, in vivo, iv): >2000 mg/kg BW; Efficiency as substrate of AKR1B1 (rate of NADPH depletion) (AKR1B1 [7]; listed as glyceraldehyde): best substrate; Tumor volume (HepG2 tumor xenograft): significantly reduced; Tumor weight (HepG2 tumor xenograft): significantly reduced
2 | O=CC[C@@H](O)[C@H](O)[C@H](O)CO [2DG, 2-deoxyglucose] | more resistant | more resistant | 87 | more sensitive to 2DG than HepG2 and SKOV3 | more sensitive to 2DG than HepG2 and SKOV3 | more sensitive; also recorded: not as efficient as glyceraldehyde and diacetyl | more sensitive; also recorded: not as efficient as glyceraldehyde and diacetyl | then 2DG | then 2DG | 149 |  |  |  |  |  |  | GSH level in the presence of 2DG (HCT116 cells [10]; 2DG (20 mM) 48 h): decreased significantly; GSH level in the presence of 2DG (CaCo2 cells [11]; 2DG (20 mM) 48 h): decreased significantly; GSH level in the presence of 2DG (SKOV3 cells [12]; 2DG (20 mM) 48 h): decreased significantly; GSH level in the presence of 2DG (HepG2 cells [13]; 2DG (20 mM) 48 h): decreased significantly; Efficiency as substrate of AKR1B1 (rate of NADPH depletion) (AKR1B1 [7]; listed as 2 DG): worst substrate among the three; Efficiency as substrate of AKR1B10 (rate of NADPH depletion) (AKR1B10 [8]; listed as 2 DG): worst substrate among the three; Inhibition of glycolysis (glycolysis): 15-40%
3 | O=C[C@H](F)[C@@H](O)[C@H](O)[C@H](O)CO [2FDG, 2-fluorodeoxy-D-glucose] |  |  |  |  |  |  |  |  |  |  |  |  |  |  |  |  | Potency as glycolysis inhibitor relative to 2DG (glycolysis): more potent glycolysis inhibitor than 2DG
4 | NC(=O)[C@@H]1C[C@]2(NC(=O)NC2=O)c2cc(F)ccc2O1 [Fidarestat] |  |  |  |  |  |  |  |  |  |  | able to increase | able to increase | protected | protected | less effective in protecting | less effective in protecting | 
5 | COc1ccc2c(C(=S)N(C)CC(=O)O)cccc2c1C(F)(F)F [Tolrestat] |  |  |  |  |  |  |  |  |  |  | significantly restored | significantly restored | dose-dependently protected | dose-dependently protected | dose-dependently protected | dose-dependently protected | Restoration of GSH level in 2DG treated cells by AKR1Bs inhibitor (SKOV3 cells [12]; [14]): significantly restored; Restoration of GSH level in 2DG treated cells by AKR1Bs inhibitor (HepG2 cells [13]; [14]): significantly restored

Source: patent US20230190774A1, “METHOD OF USING SUBSTRATES OF AKR1Bl/AKR1B10 AS ANTI-CANCER DRUGS” (Beijing Normal University Hong Kong Baptist University …, priority 2015, published 2023)
